Tested on: human colon cancer cells (HCT-15)
Test: Anticancer effect in nude mice transplanted with human colon cancer cells (tumor volume)
Assay type: in vivo, BALB/C nude mice
Conditions: G2, 2 mg/kg abdominal, once in 2 days
Procedure: The anticancer effect of the inventive composition was tested at the Chemon Preclinical Research Center (approved by the KGLP) using a nude mouse transplanted with human colon cancer cells.
7-weeks-old specific pathogen free (SPF) athymic BALB/C nude mice (SLC Japan, Japan) were weighed and grouped to 6 groups, 10 per each group, as follows: negative control group (1), positive control group (1) and test groups (4). The mice were identified by the identification label of the cage and using ear punching.
The test groups were designed as in Table 1.
Colon cancer cells (HCT15) were thawed in a constant-temperature water bath of […] as soon as possible. After mixing well with 10 mL of RPMI1640 culture medium (Sigma Aldrich, USA), centrifuge was performed at 1000 rpm for 10 minutes. The resulting cell pellet was mixed well with 5 mL of RPMI1640 culture medium containing 10% fetal bovine serum (FBS), and the cells were cultured in a cell culture flask under the condition of 37° C. and 5% CO2. The cultured cancer cells were suspended in physiological saline to a concentration of 1×10^7 cells/mL and transplanted subcutaneously to the mice, 0.3 mL (3×10^6 cells) each.
The composition prepared in Example 1 was suspended at various concentrations in sterilized, distilled water for injection (Choongwae Pharma Corporation, Korea) as excipient, ground using a grinding machine (homogenizer), and orally administered to the mice at a dose of 75 mg/kg body weight (G3), 150 mg/kg body weight (G4) or 300 mg/kg body weight (G5), respectively, for 3 weeks, twice a day. Of the test groups, the pre-administration group (G6) had been orally administered with the composition at a dose of 300 mg/kg body weight for 3 weeks, twice a day, before the transplantation of the cancer cells. Following the transplantation of the cancer cells, they were administered in the same way for 3 weeks.
In the negative control group (G1), the excipient was orally administered for 3 weeks, twice a day, instead of the inventive anticancer composition. […] The doxorubicin solution was prepared by dissolving in the excipient by a method known in the art.
During the test, the mice were kept under the condition of 23±3° C. and relative humidity of 55±15%, and access to water and feed was allowed freely.
Tumor volume was measured on days 12, 15, 19 and 22 after the inoculation of the cancer cells. Length, width and height of the tumor were measured using a vernier caliper, and the tumor volume was calculated by the following equation: Tumor volume=(Length×Width×Height)÷2 The tumor volume measurement result is given in Table 2 (unit: mm^3).

`COc1cccc2c1C(=O)c1c(O)c3c(c(O)c1C2=O)C[C@@](O)(C(=O)CO)C[C@@H]3O[C@H]1C[C@H](N)[C@H](O)[C@H](C)O1` [doxorubicin] was tested, and the Tumor volume (Day 12) was 29.3 ± 16.0 mm^3, the Tumor volume (Day 15) was 93.7 ± 65.9 mm^3 and the Tumor volume (Day 19) was 149.0 ± 77.6 mm^3. The Tumor volume (Day 22) was 258.6 ± 160.1 mm^3 and the “tumor inhibition effect ([1-(tumor volume of administered group/tumor volume of negative control group)]x100)” value (day 22) was 59.5%.
